Values joined by “and” are separate entries in the source; they are usually repeats but may differ in a detail not shown here. Equal entries are not always repeated.
System: LX-1 lung xenograft sc, nude mice, tumor weight
Test: NCI In Vivo Anticancer Drug Screen. Data for tumor model Human Lung LX-1 Xenograft (subcutaneous) in NU/NU Swiss (nude) mice
Details: endpoint: optimum tumor weight change, schedule: Q04DX003 (ip), higher = larger tumour
Procedure: The antitumor activity of compounds was measured in mice bearing transplantable tumors. Survival or tumor size were measured and the results are expressed as the measurement made in the treated group (T) divided by the measurement made in the vehicle treated control group (C). The tumor model used in this assay is Human Lung LX-1 Xenograft (subcutaneous) in NU/NU Swiss (nude) mice

[1] = dose: 50.0 mg/kg/injection, vehicle: water

CC[C@]1(O)C[C@H]2CN(CCc3c([nH]c4ccccc34)[C@@](C(=O)OC)(c3cc4c(cc3OC)N(C=O)[C@H]3[C@@](O)(C(=O)OC)[C@H](OC(C)=O)[C@]5(CC)C=CCN6CC[C@]43[C@@H]65)C2)C1
T/C (dose: 0.25 mg/kg/injection, vehicle: saline): 98 % of control
T/C (dose: 0.5 mg/kg/injection, vehicle: saline): 79 % of control

CCCCNCCCNCCCNC(=O)c1csc(-c2csc(CCNC(=O)C(NC(=O)C(C)C(O)C(C)NC(=O)C(NC(=O)c3nc(C(CC(N)=O)NCC(N)C(N)=O)nc(N)c3C)C(OC3OC(CO)C(O)C(O)C3OC3OC(CO)C(O)C(OC(N)=O)C3O)c3cnc[nH]3)C(C)O)n2)n1 (centres undefined)
T/C (dose: 8.0 mg/kg/injection, vehicle: saline): 56 % of control
T/C (dose: 15.0 mg/kg/injection, vehicle: saline): 19 % of control
T/C (dose: 16.0 mg/kg/injection, vehicle: saline): 30 % of control
T/C (dose: 30.0 mg/kg/injection, vehicle: saline): 20 % of control
T/C (dose: 32.0 mg/kg/injection, vehicle: saline): 26 % of control
T/C (dose: 64.0 mg/kg/injection, vehicle: saline): 19 % of control
T/C (dose: 128.0 mg/kg/injection, vehicle: saline): 1 % of control

ClCC[N+]12CC[N+](CCCl)(CC1)C2
T/C [1]: 81 % of control
T/C (dose: 100.0 mg/kg/injection, vehicle: saline with Tween-80): 103 % of control
T/C (dose: 100.0 mg/kg/injection, vehicle: water): 106 % of control
T/C (dose: 200.0 mg/kg/injection, vehicle: saline with Tween-80): 72 % of control
T/C (dose: 200.0 mg/kg/injection, vehicle: water): 59 % of control
T/C (dose: 400.0 mg/kg/injection, vehicle: saline with Tween-80): 74 % of control
T/C (dose: 400.0 mg/kg/injection, vehicle: water): 48 % of control

CN1N=C(N)c2cn(C3OC(COP(=O)(O)O)C(O)C3O)c3ncnc1c23 (centres undefined)
T/C [1]: 86 % of control

CN(C)N=Nc1ccccc1
T/C (dose: 12.5 mg/kg/injection, vehicle: Klucel (hydroxypropylcellulose) (HPC)): 94 % of control
T/C (dose: 25.0 mg/kg/injection, vehicle: Klucel (hydroxypropylcellulose) (HPC)): 61 % of control and 79 % of control
